From ChEMBL document CHEMBL1138211, “New benzopyran-based openers of the mitochondrial ATP-sensitive potassium channel with potent anti-ischemic properties” (J Med Chem, 2006)
Activity calls are given as the source filed them. No cut-off for these calls is given here.

How the values were obtained:
Rattus norvegicus [1] = experiment: Activity in Langendorff perfused Wistar rat heart subjected to ischemia-reperfusion cycles at 40 mg/kg, ip after 30 mins; type: functional; conditions: route intraperitoneal
Rattus norvegicus [2] = experiment: Activity in Langendorff perfused Wistar rat heart subjected to ischemia-reperfusion cycles at 40 mg/kg, ip after 120 mins; type: functional; conditions: route intraperitoneal
Aorta [3] = experiment: Vasorelaxation activity on KCl-induced contractile tone in Wistar rat thoracic aortic ring at 100 uM; type: functional
Aorta [4] = experiment: Vasorelaxation activity on KCl-induced contractile tone in Wistar rat thoracic aortic ring; type: functional, tissue-based
Rattus norvegicus [5] = experiment: LDH release in Langendorff perfused Wistar rat heart subjected to ischemia-reperfusion cycles at 40 mg/kg, ip after 120 mins; type: functional; conditions: route intraperitoneal
Rattus norvegicus [6] = experiment: Ischemia-injured area relative to total area in Langendorff perfused Wistar rat heart subjected to ischemia-reperfusion cycles at 40 mg/kg, ip; type: functional; conditions: route intraperitoneal
Rattus norvegicus [7] = experiment: Activity in Langendorff perfused Wistar rat heart subjected to ischemia-reperfusion cycles at 40 mg/kg, ip after 120 mins in presence of 5-hydroxydecanoic acid; type: functional; conditions: route intraperitoneal
Rattus norvegicus [8] = experiment: LDH release in Langendorff perfused Wistar rat heart subjected to ischemia-reperfusion cycles at 40 mg/kg, ip after 120 mins in presence of 5-hydroxydecanoic acid; type: functional; conditions: route intraperitoneal
Rattus norvegicus [9] = experiment: Ischemia-injured area relative to total area in Langendorff perfused Wistar rat heart subjected to ischemia-reperfusion cycles at 40 mg/kg, ip in presence of 5-hydroxydecanoic acid; type: functional; conditions: route intraperitoneal
Rattus norvegicus [10] = experiment: Activity in Langendorff perfused Wistar rat heart subjected to ischemia-reperfusion cycles at 40 mg/kg, ip after 30 mins in presence of 5-hydroxydecanoic acid; type: functional; conditions: route intraperitoneal
Rattus norvegicus [11] = experiment: LDH release in Langendorff perfused Wistar rat heart subjected to ischemia-reperfusion cycles at 1 mg/kg, ip after 120 mins in presence of 5-hydroxydecanoic acid; type: functional; conditions: route intraperitoneal
Rattus norvegicus [12] = experiment: Activity in Langendorff perfused Wistar rat heart subjected to ischemia-reperfusion cycles at 1 mg/kg, ip after 30 mins in presence of 5-hydroxydecanoic acid; type: functional; conditions: route intraperitoneal
Rattus norvegicus [13] = experiment: Ischemia-injured area relative to total area in Langendorff perfused Wistar rat heart subjected to ischemia-reperfusion cycles at 1 mg/kg, ip; type: functional; conditions: route intraperitoneal
Rattus norvegicus [14] = experiment: Ischemia-injured area relative to total area in Langendorff perfused Wistar rat heart subjected to ischemia-reperfusion cycles at 1 mg/kg, ip in presence of 5-hydroxydecanoic acid; type: functional; conditions: route intraperitoneal
Rattus norvegicus [15] = experiment: Activity in Langendorff perfused Wistar rat heart subjected to ischemia-reperfusion cycles at 1 mg/kg, ip after 120 mins in presence of 5-hydroxydecanoic acid; type: functional; conditions: route intraperitoneal
Rattus norvegicus [16] = experiment: Activity in Langendorff perfused Wistar rat heart subjected to ischemia-reperfusion cycles at 1 mg/kg, ip after 120 mins; type: functional; conditions: route intraperitoneal
Rattus norvegicus [17] = experiment: LDH release in Langendorff perfused Wistar rat heart subjected to ischemia-reperfusion cycles at 1 mg/kg, ip after 120 mins; type: functional; conditions: route intraperitoneal
Rattus norvegicus [18] = experiment: Decrease in systolic blood pressure in Wistar rat at 1 mg/kg, ip after 60 mins; type: functional, organism-based; set-up: dose 1 mg/kg; conditions: Artery
Rattus norvegicus [19] = experiment: Activity in Langendorff perfused Wistar rat heart subjected to ischemia-reperfusion cycles at 1 mg/kg, ip after 30 mins; type: functional; conditions: route intraperitoneal

SMILES: CC(=O)Nc1ccc(CN2CCOC3(C2)CC(C)(C)Oc2ccccc23)cc1 (racemic)
- Activity (Rattus norvegicus [1]): 12%
- Activity (Rattus norvegicus [2]): 17%
- Emax at 100 µM (Aorta [3]): 77%
- IC50 (Aorta [4]): 13.2 µM
- LDH release (Rattus norvegicus [5]): 16 U/g
- Activity (Rattus norvegicus [6]): 50%

SMILES: CC(=O)Nc1ccc(CN2CC3(CC(C)(C)Oc4ccc(Br)cc43)OCC2=O)cc1 (racemic)
- Activity (Rattus norvegicus [1]): 2%
- Activity (Rattus norvegicus [2]): 3%
- Emax at 100 µM (Aorta [3]): 70%
- IC50 (Aorta [4]): 15.1 µM
- LDH release (Rattus norvegicus [5]): 12.4 U/g
- Activity (Rattus norvegicus [6]): 58%

SMILES: CC1(C)CC2(CN(Cc3ccc(NS(C)(=O)=O)cc3)C(=O)CO2)c2cc(Br)ccc2O1 (racemic)
- Activity (Rattus norvegicus [7]): 39%
- Activity (Rattus norvegicus [1]): 75%
- Activity (Rattus norvegicus [8]): 11.7 U/g
- Activity (Rattus norvegicus [2]): 57%
- Activity (Rattus norvegicus [9]): 47%
- Emax at 100 µM (Aorta [3]): 87%
- IC50 (Aorta [4]): 7.24 µM
- LDH release (Rattus norvegicus [5]): 3 U/g
- Activity (Rattus norvegicus [10]): 52%
- Activity (Rattus norvegicus [6]): 13%

SMILES: CC(=O)Nc1ccc(CN2CC3(CC(C)(C)Oc4ccccc43)OCC2=O)cc1 (racemic)
- Activity (Rattus norvegicus [7]): 27%
- Activity (Rattus norvegicus [1]): 79%
- Activity (Rattus norvegicus [8]): 13.5 U/g
- Activity (Rattus norvegicus [2]): 62%
- Activity (Rattus norvegicus [9]): 49%
- Emax at 100 µM (Aorta [3]): 57%
- IC50 (Aorta [4]): 25.1 µM
- LDH release (Rattus norvegicus [5]): 6 U/g
- Activity (Rattus norvegicus [10]): 16%
- Activity (Rattus norvegicus [6]): 20%

SMILES: CC(=O)Nc1ccc(CN2CCOC3(C2)CC(C)(C)Oc2ccc(Br)cc23)cc1 (racemic)
- Activity (Rattus norvegicus [1]): 15%
- Activity (Rattus norvegicus [2]): 26%
- Emax at 100 µM (Aorta [3]): 99%
- IC50 (Aorta [4]): 2.4 µM
- LDH release (Rattus norvegicus [5]): 11.3 U/g
- Activity (Rattus norvegicus [6]): 61%

SMILES: CC1(C)CC2(CN(Cc3ccc(NS(C)(=O)=O)cc3)CCO2)c2cc(Br)ccc2O1 (racemic)
- Activity (Rattus norvegicus [7]): 33%
- Activity (Rattus norvegicus [1]): 89%
- Activity (Rattus norvegicus [8]): 13.4 U/g
- Activity (Rattus norvegicus [2]): 77%
- Activity (Rattus norvegicus [9]): 40%
- Emax at 100 µM (Aorta [3]): 98%
- LDH release (Rattus norvegicus [5]): 6.9 U/g
- Activity (Rattus norvegicus [10]): 17%
- Activity (Rattus norvegicus [6]): 14%

SMILES: CC1(C)Oc2ccc(C#N)cc2C(N2CCCC2=O)C1O (racemic) [CROMAKALIM]
- Activity (Rattus norvegicus [11]): 8.6%
- Activity (Rattus norvegicus [12]): 11%
- Activity (Rattus norvegicus [13]): 25%
- Activity (Rattus norvegicus [14]): 38%
- Activity (Rattus norvegicus [15]): 18%
- Emax at 100 µM (Aorta [3]): 98%
- Activity (Rattus norvegicus [16]): 84%
- Activity (Rattus norvegicus [17]): 5.5%
- IC50 (Aorta [4]): 0.0977 µM
- Activity (Rattus norvegicus [18]): Active
- Activity (Rattus norvegicus [19]): 99%

SMILES: CC1=Nc2ccc(Cl)cc2S(=O)(=O)N1 [DIAZOXIDE]
- Activity (Rattus norvegicus [7]): 6%
- Activity (Rattus norvegicus [1]): 80%
- Activity (Rattus norvegicus [8]): 14.5%
- Activity (Rattus norvegicus [2]): 47%
- Activity (Rattus norvegicus [9]): 52%
- Emax at 100 µM (Aorta [3]): 97%
- IC50 (Aorta [4]): 19.1 µM
- LDH release (Rattus norvegicus [5]): 5.7 U/g
- Activity (Rattus norvegicus [10]): 13%
- Activity (Rattus norvegicus [6]): 22%
